From PubChem BioAssay AID1419 (Emory University Molecular Libraries Screening Center, 2008) come the findings set out here.

Active and inactive are the calls of the source. The rule behind the calls is not given here. Bounds are passed on as bounds.

As a reminder, the IC50 is the concentration that inhibits the measured activity by half.

The test is described as follows: blockers of an Epstein-Barr virus protein-peptide interaction – biochemical, fluorescence polarization, dose response (AID 1419). As to conditions: cell-free protein-peptide binding, 2 h; for fold change: measured here: P channel fold over control, at 54 µM. Background: Polarisation of emitted light reports the rotation of a fluorescent probe.

As for `O=C1CCNc2ccc(-c3ccccc3)cc21`, the IC50 was less than 0.42 µM and the fold change was 32.7.
The corresponding values for `COc1ccc(NS(=O)(=O)c2ccc(Cl)s2)cn1` are 4.58 µM and 3.24.
The corresponding values for `Brc1ccc(C2=CC(c3ccco3)n3ncnc3N2)cc1` (centres undefined) are 1.09 µM and 6.05.
As for `O=C(CSc1ccsc1[N+](=O)[O-])Nc1cc(F)ccc1F`, the IC50 is > 54 µM (inactive) and the fold change is 1.05.
The corresponding values for `NC(=O)c1ccc(N=Nc2c(O)c3ccccc3[nH]c2=O)cc1` are 13.3 µM and 2.71.
The corresponding values for `N#CC1=C(N)OC2=C(CC/C2=C\c2ccc(F)cc2)C1c1ccc(F)cc1` (centres undefined) are 20 µM and 3.48.
For `Nc1c(NCCC2=CCCCC2)c(=O)[nH]c(=O)n1Cc1ccccc1`, in that order: > 54 µM (inactive) and 1.7.
Take `Cc1cc(/C=C2\SC(=S)N(Cc3ccco3)C2=O)c(C)n1-c1ccccc1`: the IC50 was 7.24 µM and the fold change came out at 4.81.
On to `CCn1c(O)c(/C=N/N=C/c2ccccc2)c2ccc(C3=NNC(=O)CC3)cc21`, for which the IC50 is 14.8 µM and the fold change turned out to be 9.01.
In the case of `O=C(NCc1ccco1)c1c2c(nc3ccccc13)CCC2`, the IC50 is > 54 µM (inactive) and the fold change came to 1.05.
For `COc1ccc(CCNC(=O)COc2nsnc2N2CCOCC2)cc1OC`, in that order: > 54 µM (inactive) and 1.22.
The corresponding values for `CC(=O)Oc1ccc2c(c1)Oc1cc(OC(C)=O)ccc1C21OC(=O)c2ccccc21` are less than 0.42 µM and 23.1.
For `O=C1Nc2ccccc2/C1=C/c1cnc(-c2ccccc2)[nH]1`, in that order: 4.23 µM and 14.6.
Regarding `CCOc1cc(-c2ccc(N)c(OCC)c2)ccc1N`, the IC50 was 1.52 µM and the fold change is 5.61.
Consider `COc1cc(/C=C2/C(=O)c3cccc([N+](=O)[O-])c3C2=O)c(Br)cc1O`, for which the IC50 is > 54 µM (inactive) and the fold change was 0.647.
As to `CCN(CC)c1ccc2c(c1)oc(=O)c1c(Cl)cc(=O)oc12`, the IC50 is 6.37 µM and the fold change was found to be 11.9.
In the case of `CCOC(=O)c1[nH]cnc1N=Nc1c(O)ccc2ccccc12`, the IC50 is 7.35 µM and the fold change was 2.68.
Take `CCCCCCOC(=O)C(C#N)c1nc2ccccc2nc1N1CCOCC1` (centres undefined): the IC50 was 14.6 µM and the fold change amounted to 8.17.
For the molecule `CC(=O)Nc1ccc(Nc2c3c4c(cccc4n(C)c2=O)C(=O)c2ccccc2-3)cc1`, the IC50 was less than 0.42 µM and the fold change came to 9.61.
Regarding `O=[N+]([O-])c1ccc(-c2cn(-c3ccc(Cl)cc3)c(=S)[nH]2)cc1`, the IC50 was > 54 µM (inactive) and the fold change turned out to be 0.93.
For `COC(=O)c1ccc2c(=O)sc(N3CCC(C(N)=O)CC3)nc2c1`, in that order: 4 µM and 2.35.
For `Cc1cc(N(CCCl)CCCl)ccc1/C=N/NC(=O)c1ccco1`, in that order: > 54 µM (inactive) and 1.06.
For `Nc1ccc2nonc2c1[N+](=O)[O-]`, in that order: less than 0.42 µM and 41.
In the case of `CC[C@@H](CO)NC(=O)[C@@H]1C=C2c3cccc4c3c(cn4C)C[C@H]2N(C)C1`, the IC50 is > 54 µM (inactive) and the fold change was found to be 1.44.
For `COc1ccccc1NC(=O)CC(c1ccc(OC(C)C)cc1)c1ccccc1OC` (centres undefined), in that order: > 54 µM (inactive) and 0.927.
For `CCOc1ccc2[nH]c(=O)c(CN(CC3COCCO3)C(=O)C3CC3)cc2c1` (centres undefined), in that order: > 54 µM (inactive) and 1.04.
For `CC(=O)Nc1ccc(N2CCc3c(C)c(C#N)c4nc5ccccc5n4c32)cc1`, in that order: > 54 µM (inactive) and 3.39.
For the molecule `COc1ccc(C2=CC(c3ccco3)n3ncnc3N2)cc1` (centres undefined), the IC50 was 1.31 µM and the fold change is 12.4.
Turning to `CN1/C(=C/C=C(C#N)C#N)C(C)(C)c2ccccc21`, the IC50 was > 54 µM (inactive) and the fold change worked out at 1.64.
For `CC(C)(C)NC(=O)c1sccc1C(=O)O`, in that order: > 54 µM (inactive) and 1.06.
The corresponding values for `S=C(Nc1ccc(N2CCOCC2)cc1)Nc1ccc2nc(-c3ccco3)c(-c3ccco3)nc2c1` are 3.86 µM and 3.7.
The corresponding values for `O=[N+]([O-])c1ccc2[nH]c(O)c(N=NC(=S)Nc3cccnc3)c2c1` are > 54 µM (inactive) and 0.61.
With `C/C(=N/OC(=O)c1c(-c2c(Cl)cccc2Cl)noc1C)c1cnccn1`, the IC50 is > 54 µM (inactive) and the fold change was 0.997.
For `CCN(CC)c1ccc(N=Cc2c(O)n(-c3ccc(OC)cc3)c(=O)[nH]c2=O)cc1`, in that order: 6.01 µM and 17.1.
As to `Cc1nc2ccccc2n2c(O)c(CC(=O)O)cc12`, the IC50 is > 54 µM (inactive) and the fold change amounted to 7.32.
For `Cn1c(=O)c(N)c2c3c(c(Br)ccc31)C(=O)c1ccccc1-2`, in that order: less than 0.42 µM and 98.9.
The corresponding values for `CSC1=NSC2=NC(=O)/C(=C/c3coc4ccc(O)cc4c3=O)C(=N)N12` are 2.5 µM and 63.6.
The corresponding values for `O=C(Nc1cccc([N+](=O)[O-])c1)c1cnccn1` are > 54 µM (inactive) and 1.09.
As for `CC(C)NC(=O)c1sc2nc(-c3cccs3)cc(-c3cccs3)c2c1N`, the half-maximal inhibitory concentration (IC50) was 2.1 µM and the fold change is 15.4.
The corresponding values for `Clc1ccc(C2=CC(c3ccco3)n3ncnc3N2)cc1` (centres undefined) are 3.9 µM and 3.17.
The corresponding values for `C=CCN1C(=O)/C(=C/c2ccc(N(C)C)cc2)S/C1=N\c1nnc(CC)s1` are 9.51 µM and 10.2.
The corresponding values for `O=C(Nc1ccccc1F)C(=Cc1sc(N2CCOCC2)nc1-c1ccccc1)C(=O)Nc1ccccc1F` are 5.71 µM and 7.63.
As for `Cc1ccc(C(=O)Nn2c(O)c(C=C3N=c4ccccc4=N3)sc2=S)cc1`, the IC50 is > 54 µM (inactive) and the fold change was 1.04.
The corresponding values for `CCN(CC)c1ccc(N=Cc2c(O)n(CCc3ccc(OC)c(OC)c3)c(=O)[nH]c2=O)cc1` are > 54 µM (inactive) and 5.55.
For `Cc1ccc2oc(=O)c(/C=C(\O)c3ccccc3)nc2c1`, in that order: 35.4 µM (inactive) and 2.39.
The corresponding values for `CCCCC1=CC2=C(c3ccco3)C(=O)C(C)(OC(=O)c3ccc(OC)cc3)C(=O)C2=CN1CCc1ccccn1` (centres undefined) are > 54 µM (inactive) and 1.16.
As to `O=C1C2=C(SCCS2)C(=O)N1CCCO`, the 50% inhibitory concentration (IC50) is 2.57 µM and the fold change was determined as 3.44.
The corresponding values for `CC1CN(c2nc3ccccc3nc2C(C#N)C(=O)NCc2ccc3c(c2)OCO3)CC(C)O1` (centres undefined) are 5.37 µM and 4.35.
The corresponding values for `Cc1ccc2cc(C=C(C#N)C#N)c(N3CCCCC3)nc2c1` are 2.98 µM and 24.
The corresponding values for `COC(=O)c1cc(NC(=O)c2cccc(Cl)c2)c(=O)oc1/C=C/Nc1cc(C)cc(C)c1` are 4.37 µM and 22.8.
As for `CCc1ccc[n+](-c2[nH]c(=O)sc2/C=N/NC([S-])=Nc2ccccc2)c1`, the IC50 was 22.1 µM and the fold change was determined as 2.13.
For `COc1ccc(C2C(C(C)=O)=C(C)N=c3s/c(=C\c4cc(C)n(C)c4C)c(=O)n32)c(OC)c1` (centres undefined), in that order: 4.29 µM and 11.8.
With `O=C(C1=C(O)C(=O)N(c2nccs2)C1c1ccccc1)c1cc2ccccc2o1` (centres undefined), the IC50 was less than 0.42 µM and the fold change came out at 161.
With `COc1ccc(-c2nnc(Nc3ccc(S(=O)(=O)Nc4nccs4)cc3)c3ccccc23)cc1`, the IC50 is > 54 µM (inactive) and the fold change came out at 1.09.
For `C=CCOc1cccc(C2C(C(=O)c3ccc(C)o3)=C(O)C(=O)N2c2nccs2)c1` (centres undefined), in that order: less than 0.42 µM and 4.84.
Consider `COc1ccc2nc(N3CCC(C)CC3)c(C#N)cc2c1`, for which the 50% inhibitory concentration (IC50) is 9.17 µM and the fold change was 1.94.
For the molecule `Cc1cccn2c(=O)c3cc(C(=O)NCc4ccco4)c(=N)n(CCOCCO)c3nc12`, the IC50 was 3.61 µM and the fold change turned out to be 3.76.
On to `Cc1ccc(S(=O)(=O)c2c(N)n(Cc3ccco3)c3nc4ccccc4nc23)cc1`, for which the IC50 was > 54 µM (inactive) and the fold change worked out at 1.41.
The corresponding values for `CCN(CC)c1ccc(/C=c2\sc3nnc(-c4ccccc4Cl)n3c2=O)cc1` are 2.65 µM and 16.1.
For `Cc1ccc([N+](=O)[O-])cc1-c1ccc(/C=C(\C#N)c2[nH]nc(N)c2C#N)o1`, in that order: > 54 µM (inactive) and 0.727.
As for `CCc1cccc2cc3c(N)c(C(=O)Nc4ccc(S(=O)(=O)N5CCCC5)cc4)sc3nc12`, the IC50 is 1.63 µM and the fold change turned out to be 8.07.
The corresponding values for `COc1ccc(C(=O)c2sc3nc(C)cc(-c4cccs4)c3c2N)cc1` are 10.9 µM and 10.2.
The corresponding values for `COC(=O)CCCCC1SCC(NC(=O)c2ccccc2)C1Cl` (centres undefined) are 10.8 µM and 2.16.
With `CCN(CC)c1ccc(/C=C(\C#N)C(=O)c2ccc(Br)cc2)cc1`, the IC50 is 2.69 µM and the fold change amounted to 107.
For `COc1ccc(N2C(=O)[C@@H]3[C@H](C2=O)[C@H]2c4ccccc4C=CN2[C@@H]3C(C)=O)cc1`, the half-inhibitory concentration (IC50) is 7.62 µM and the fold change amounted to 5.55.
For `NC(=S)n1[nH]c(-c2ccc([N+](=O)[O-])cc2)c(N=Nc2cccc(Cl)c2)c1=O`, in that order: 3.74 µM and 1.19.
The corresponding values for `Clc1ccc(OCc2nnc(-c3ccccc3Br)o2)c(Cl)c1` are > 54 µM (inactive) and 1.
